These results are taken from PubChem BioAssay (NCI).

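Interpolation was linear, between the two tested concentrations surrounding the appropriate level; five concentrations were tested over 48 hours in 96-well plates. The concentration for 50% growth inhibition is given as GI50. TGI: concentration producing complete growth inhibition.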 Bounds are passed on as bounds.

The subject of the first experiment is NCI-H226 lung. Briefly: NCI tumour cell line growth inhibition, 48 h.
Take `CC(C)(C)OC(=O)NC1CCCC1=O` (configuration not stated): the TGI is more than 100 µM.

`Cc1c(C(=O)/C=C/c2ccccc2[N+](=O)[O-])[n+](=O)c2ccccc2n1[O-]` gave a TGI of 24 µM.

On to `O=C(/C=C/c1cccc(O)c1)c1cccc(-n2cc(-c3ccc4ccccc4c3)[nH]c2=O)c1`, for which the GI50 is 2.43 µM and the TGI came to 8.91 µM.

In the case of `CCCCCCC(C)CCCCCCCCCCC(=O)O` (configuration not stated), the TGI was more than 100 µM.

The compound `COc1ccc2c(NCCCCCCNc3c4ccccc4nc4cc(OC)ccc34)c3ccccc3nc2c1` registered a TGI of 3.49 µM.

As to `O=C(O)c1ccccc1C(=O)c1ccc2c(c1)Cc1ccccc1-2`, the TGI is more than 100 µM.

On to `CC(C)(C)c1ccc(OC2CCO2)cc1` (configuration not stated), for which the TGI is 92.8 µM.

In the case of `C=CC1=C(C)C2=NC1=CC1=NC(=CC3=C(C)C4=C(O)[C@H](C(=O)OC)C(=C5NC(=C2)[C@@H](C)[C@@H]5CCC(=O)O)C4=N3)C(CC)=C1C`, the TGI was more than 100 µM.

Regarding `CC1(O)CCn2c(=O)c3cc4ccccc4cc3c(=O)n2C1O` (configuration not stated), the TGI is more than 100 µM.

`CC(C)[O-].CC(C)[O-].O=c1cccccc1[O-].O=c1cccccc1[O-].[Ti+4]` registered a TGI of more than 100 µM.

As for `COc1ccccc1NC(=O)/C(=C/c1ccccc1)C(C)=O`, the TGI was more than 100 µM.

`Clc1ccc2c(c1)N(c1ncnc3ccc(-c4cnc5[nH]ncc5c4)cc13)CC2`: the GI50 was 0.896 µM and the TGI is more than 100 µM.

With `O=C(CC1(O)C(=O)Nc2c(Cl)ccc(Cl)c21)c1ccc(Cl)cc1Cl` (configuration not stated), the TGI turned out to be 30.5 µM.

For `C=C1C2Oc3ccccc3C1N(c1ccccc1)O2` (configuration not stated), the TGI was more than 100 µM.

As for `O=C(c1cccs1)C1NO[N+]([O-])=C1c1cccs1` (configuration not stated), the GI50 is 9.9 µM and the TGI is more than 35.2 µM.

On to `CC(=O)[CH-]C(=O)c1ccccc1.CC(=O)[CH-]C(=O)c1ccccc1.CC1(C)OCC(C2OC3OC(C)(C)OC3C2[O-])O1.CC[O-].[Ti+4]` (configuration not stated), for which the GI50 is 15.2 µM and the TGI turned out to be 30.1 µM.

`Cc1ccccc1/C=C/C(=O)c1ccccc1` had a TGI of 36.7 µM.

Turning to `Cc1cc2c(cc1Cl)S/C(=C/C(=O)O)C(Nc1cccc3nsnc13)=NS2(=O)=O`, the GI50 is 32.1 µM and the TGI is more than 68 µM.

With `CCOC(=O)N1CCN(CCCCCOc2ccccc2C2CCCCC2)CC1`, the GI50 is 3.96 µM and the TGI was determined as 18.4 µM.

Regarding `O=C1c2ccccc2-c2c1c1ccccc1c(=O)n2CCNCCn1c2c(c3ccccc3c1=O)C(=O)c1ccccc1-2`, the GI50 is more than 25 µM and the TGI is more than 25 µM.

Turning to `CCCCCCCCCCCCCC[n+]1cccc(C(N)=O)c1`, the GI50 was 1.63 µM and the TGI came out at 5.11 µM.

Turning to `N#CC(C#N)=c1c2nsnc2c(=C(C#N)C#N)c2nsnc12`, the TGI is 31.9 µM.

In the case of `C/C1=C\CC[C@@](C)(O)[C@@H]2C[C@H](CC/C(C)=C/CC1)C1(CC1)C(=O)O2`, the GI50 is 25.8 µM and the TGI stood at 76.2 µM.

The next experiment concerns HCC-2998 colon. Kind of experiment: NCI tumour cell line growth inhibition, 48 h.
The compound `CC(C)(C)OC(=O)NC1CCCC1=O` (configuration not stated) returned a TGI of more than 100 µM.

With `O=C(/C=C/c1cccc(O)c1)c1cccc(-n2cc(-c3ccc4ccccc4c3)[nH]c2=O)c1`, the GI50 is 2.13 µM and the TGI came out at 5.11 µM.

Take `COc1ccc2c(NCCCCCCNc3c4ccccc4nc4cc(OC)ccc34)c3ccccc3nc2c1`: the TGI came out at 0.451 µM.

In turn, `O=C(O)c1ccccc1C(=O)c1ccc2c(c1)Cc1ccccc1-2` returned a TGI of 88 µM.

`CC(C)(C)c1ccc(OC2CCO2)cc1` (configuration not stated) came in with a TGI of 94.1 µM.

In the case of `C=CC1=C(C)C2=NC1=CC1=NC(=CC3=C(C)C4=C(O)[C@H](C(=O)OC)C(=C5NC(=C2)[C@@H](C)[C@@H]5CCC(=O)O)C4=N3)C(CC)=C1C`, the TGI worked out at 4.23 µM.

For `CC1(O)CCn2c(=O)c3cc4ccccc4cc3c(=O)n2C1O` (configuration not stated), the TGI is more than 100 µM.

`CC(C)[O-].CC(C)[O-].O=c1cccccc1[O-].O=c1cccccc1[O-].[Ti+4]` registered a TGI of more than 100 µM.

As to `COc1ccccc1NC(=O)/C(=C/c1ccccc1)C(C)=O`, the TGI was more than 100 µM.

Take `Clc1ccc2c(c1)N(c1ncnc3ccc(-c4cnc5[nH]ncc5c4)cc13)CC2`: the GI50 was 1.07 µM and the TGI was more than 100 µM.

`O=C(CC1(O)C(=O)Nc2c(Cl)ccc(Cl)c21)c1ccc(Cl)cc1Cl` (configuration not stated) gave a TGI of 32.2 µM.

With `C=C1C2Oc3ccccc3C1N(c1ccccc1)O2` (configuration not stated), the TGI was more than 100 µM.

In the case of `O=C(c1cccs1)C1NO[N+]([O-])=C1c1cccs1` (configuration not stated), the GI50 was 17.2 µM and the TGI came to 31.7 µM.

Turning to `CC(=O)[CH-]C(=O)c1ccccc1.CC(=O)[CH-]C(=O)c1ccccc1.CC1(C)OCC(C2OC3OC(C)(C)OC3C2[O-])O1.CC[O-].[Ti+4]` (configuration not stated), the GI50 was 15.4 µM and the TGI came to 29.9 µM.

The compound `CCOC(=O)C1(Cc2ccc3ccccc3c2)CCCCC(=O)N1` (configuration not stated) showed a TGI of 66.6 µM.

`Cc1ccccc1/C=C/C(=O)c1ccccc1` gave a TGI of 34.5 µM.

Take `CCCCCCCCCCCCCC[n+]1cccc(C(N)=O)c1`: the GI50 was 2.2 µM.

`N#CC(C#N)=c1c2nsnc2c(=C(C#N)C#N)c2nsnc12` came in with a TGI of 3.25 µM.

With `C/C1=C\CC[C@@](C)(O)[C@@H]2C[C@H](CC/C(C)=C/CC1)C1(CC1)C(=O)O2`, the GI50 was 30.4 µM and the TGI was found to be 66.6 µM.

The next experiment relates to IGROV1 ovarian. Kind of experiment: NCI tumour cell line growth inhibition, 48 h.
On to `Cc1c(C(=O)/C=C/c2ccccc2[N+](=O)[O-])[n+](=O)c2ccccc2n1[O-]`, for which the TGI was found to be 29.9 µM.

Regarding `O=C(/C=C/c1cccc(O)c1)c1cccc(-n2cc(-c3ccc4ccccc4c3)[nH]c2=O)c1`, the GI50 is 1.33 µM and the TGI stood at 2.79 µM.

For the compound `CCCCCCC(C)CCCCCCCCCCC(=O)O` (configuration not stated), the TGI is more than 100 µM.

Regarding `COc1ccc2c(NCCCCCCNc3c4ccccc4nc4cc(OC)ccc34)c3ccccc3nc2c1`, the TGI was 0.339 µM.

As for `O=C(O)c1ccccc1C(=O)c1ccc2c(c1)Cc1ccccc1-2`, the TGI was more than 100 µM.

Turning to `CC(C)(C)c1ccc(OC2CCO2)cc1` (configuration not stated), the TGI is more than 100 µM.

In the case of `C=CC1=C(C)C2=NC1=CC1=NC(=CC3=C(C)C4=C(O)[C@H](C(=O)OC)C(=C5NC(=C2)[C@@H](C)[C@@H]5CCC(=O)O)C4=N3)C(CC)=C1C`, the TGI was more than 23.8 µM.

Compound `CC1(O)CCn2c(=O)c3cc4ccccc4cc3c(=O)n2C1O` (configuration not stated) showed a TGI of more than 100 µM.

For `CC(C)[O-].CC(C)[O-].O=c1cccccc1[O-].O=c1cccccc1[O-].[Ti+4]`, the TGI was more than 100 µM.

Compound `COc1ccccc1NC(=O)/C(=C/c1ccccc1)C(C)=O` displayed a TGI of more than 100 µM.
